For eight compounds, IC50 results are on record in patent US20090299044A1 (priority 2006, published 2009).

In one assay the target is T1, human Kv1.3 (CHO) (Homo sapiens, UniProt P22001).
T1 construct: expressed in transfected cells; host or cells: CHO
Nature of the assay: cell-based.

The next assay addresses T2, human Kv1.1 (HEK293) (Homo sapiens, UniProt Q09470).
T2 construct: expressed in transfected cells; host or cells: HEK293
Nature of the assay: cell-based.

Bridge positions count the residues as written; N and C are the ends. Square brackets hold non-standard residues; d marks the D form. Peptide text beside a SMILES is read from it. 1Nal = N[C@@H](Cc1cccc2ccccc12)C(=O)O

T2 sequence (Q09470 whole entry): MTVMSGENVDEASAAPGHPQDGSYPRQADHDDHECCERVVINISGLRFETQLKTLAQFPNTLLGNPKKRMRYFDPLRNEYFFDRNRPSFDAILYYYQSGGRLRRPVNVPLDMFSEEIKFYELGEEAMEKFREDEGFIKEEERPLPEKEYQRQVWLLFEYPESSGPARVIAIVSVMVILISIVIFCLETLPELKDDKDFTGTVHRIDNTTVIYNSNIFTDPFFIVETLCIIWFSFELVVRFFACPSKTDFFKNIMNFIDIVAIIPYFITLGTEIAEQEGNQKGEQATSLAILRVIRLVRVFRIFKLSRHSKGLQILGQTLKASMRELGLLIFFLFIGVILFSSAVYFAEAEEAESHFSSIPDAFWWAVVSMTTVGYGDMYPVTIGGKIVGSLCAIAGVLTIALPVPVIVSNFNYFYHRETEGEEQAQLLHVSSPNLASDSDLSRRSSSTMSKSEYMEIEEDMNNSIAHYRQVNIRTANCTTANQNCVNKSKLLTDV
T1 sequence (P22001 whole entry): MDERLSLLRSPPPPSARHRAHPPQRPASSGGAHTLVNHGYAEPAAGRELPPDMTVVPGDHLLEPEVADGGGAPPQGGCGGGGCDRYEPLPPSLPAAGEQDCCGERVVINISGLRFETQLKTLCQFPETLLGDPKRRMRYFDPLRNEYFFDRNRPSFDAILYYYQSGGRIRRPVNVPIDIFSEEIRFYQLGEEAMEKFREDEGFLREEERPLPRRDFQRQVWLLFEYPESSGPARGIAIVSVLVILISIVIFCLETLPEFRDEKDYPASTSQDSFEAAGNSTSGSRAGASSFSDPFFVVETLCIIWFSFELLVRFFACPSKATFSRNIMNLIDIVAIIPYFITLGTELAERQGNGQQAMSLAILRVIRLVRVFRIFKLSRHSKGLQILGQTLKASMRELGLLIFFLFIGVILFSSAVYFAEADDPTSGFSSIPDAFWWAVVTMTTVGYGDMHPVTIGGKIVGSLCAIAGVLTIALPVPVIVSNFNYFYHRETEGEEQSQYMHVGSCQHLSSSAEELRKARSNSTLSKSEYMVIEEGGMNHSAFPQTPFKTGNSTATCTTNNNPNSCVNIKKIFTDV

One may read the IC50 as the midpoint of a concentration-inhibition curve. A lower IC50 goes with greater potency in that assay. Take `CC[C@H](C)[C@@H]1NC(=O)[C@H](CCCCN)NC(=O)[C@@H](NC(=O)[C@H](CCCCN)NC(=O)[C@@H](NC(=O)[C@H](C)NC(=O)[C@@H](NC(=O)[C@@H](NC(=O)[C@@H](NC(=O)CN)C(C)C)[C@@H](C)CC)[C@@H](C)CC)C(C)C)CSSC[C@@H]2NC(=O)[C@H](CCCCN)NC(=O)CNC(=O)[C@H](Cc3ccccc3)NC(=O)[C@H](CCCNC(=N)N)NC(=O)[C@H](CCSC)NC(=O)CNC(=O)[C@H](C)NC(=O)[C@H](CCCCN)NC(=O)[C@H](CCCCN)NC(=O)[C@@H]3CSSC[C@@H](C(=O)N[C@H](C(=O)N4CCC[C@H]4C(=O)N[C@@H](CCCCN)C(=O)O)[C@@H](C)O)NC(=O)[C@H](Cc4c[nH]cn4)NC(=O)[C@H](CSSC[C@H](NC(=O)[C@H](CCC(N)=O)NC(=O)[C@H](CCCNC(=N)N)NC(=O)[C@H](CO)NC1=O)C(=O)N[C@@H](CC(C)C)C(=O)N[C@@H](CCC(=O)O)C(=O)N1CCC[C@H]1C(=O)N3)NC(=O)[C@H](CCCCN)NC(=O)CNC(=O)[C@H](CC(N)=O)NC(=O)[C@H](CCSC)NC2=O` [N5A] (H-GVIIAVKCKISRQCLEPCKKAGMRFGKCMNGKCHCTPK-OH; disulfide 8-28, 14-33, 18-35): the half-maximal inhibitory concentration (IC50) against human Kv1.3 (CHO) stood at 0.16 nM; on human Kv1.1 (HEK293), 0.014 nM.
Consider `CC[C@H](C)[C@@H]1NC(=O)[C@H](CCCCN)NC(=O)[C@@H](NC(=O)[C@H](CCCCN)NC(=O)[C@@H](NC(=O)[C@H](CCC(=O)O)NC(=O)[C@@H](NC(=O)[C@@H](NC(=O)[C@@H](NC(=O)CN)C(C)C)[C@@H](C)CC)[C@@H](C)CC)C(C)C)CSSC[C@@H]2NC(=O)[C@H](CCCCN)NC(=O)CNC(=O)[C@H](Cc3ccccc3)NC(=O)[C@H](CCCNC(=N)N)NC(=O)[C@H](CCSC)NC(=O)CNC(=O)[C@H](C)NC(=O)[C@H](CCCCN)NC(=O)[C@H](CCCCN)NC(=O)[C@@H]3CSSC[C@@H](C(=O)N[C@H](C(=O)N4CCC[C@H]4C(=O)N[C@@H](CCCCN)C(=O)O)[C@@H](C)O)NC(=O)[C@H](Cc4c[nH]cn4)NC(=O)[C@H](CSSC[C@H](NC(=O)[C@H](CCC(N)=O)NC(=O)[C@H](CCCNC(=N)N)NC(=O)[C@H](CO)NC1=O)C(=O)N[C@@H](CC(C)C)C(=O)N[C@@H](CCC(=O)O)C(=O)N1CCC[C@H]1C(=O)N3)NC(=O)[C@H](CCCCN)NC(=O)CNC(=O)[C@H](CC(N)=O)NC(=O)[C@H](CCSC)NC2=O` [N5E] (H-GVIIEVKCKISRQCLEPCKKAGMRFGKCMNGKCHCTPK-OH; disulfide 8-28, 14-33, 18-35), for which the values for the IC50 at human Kv1.3 (CHO) and against human Kv1.1 (HEK293) were 0.0234 nM and 0.00444 nM, respectively.
`CC[C@H](C)[C@@H]1NC(=O)[C@H](CCCCN)NC(=O)[C@@H](NC(=O)[C@H](CCCCN)NC(=O)[C@@H](NC(=O)[C@H](Cc2cccc3ccccc23)NC(=O)[C@@H](NC(=O)[C@@H](NC(=O)[C@@H](NC(=O)CN)C(C)C)[C@@H](C)CC)[C@@H](C)CC)C(C)C)CSSC[C@@H]2NC(=O)[C@H](CCCCN)NC(=O)CNC(=O)[C@H](Cc3ccccc3)NC(=O)[C@H](CCCNC(=N)N)NC(=O)[C@H](CCSC)NC(=O)CNC(=O)[C@H](C)NC(=O)[C@H](CCCCN)NC(=O)[C@H](CCCCN)NC(=O)[C@@H]3CSSC[C@@H](C(=O)N[C@H](C(=O)N4CCC[C@H]4C(=O)N[C@@H](CCCCN)C(=O)O)[C@@H](C)O)NC(=O)[C@H](Cc4c[nH]cn4)NC(=O)[C@H](CSSC[C@H](NC(=O)[C@H](CCC(N)=O)NC(=O)[C@H](CCCNC(=N)N)NC(=O)[C@H](CO)NC1=O)C(=O)N[C@@H](CC(C)C)C(=O)N[C@@H](CCC(=O)O)C(=O)N1CCC[C@H]1C(=O)N3)NC(=O)[C@H](CCCCN)NC(=O)CNC(=O)[C@H](CC(N)=O)NC(=O)[C@H](CCSC)NC2=O` [N5Nal] (H-GVII[1Nal]VKCKISRQCLEPCKKAGMRFGKCMNGKCHCTPK-OH; disulfide 8-28, 14-33, 18-35): the IC50 is 0.0218 nM at human Kv1.3 (CHO) and under 0.00152 nM against human Kv1.1 (HEK293).
For the compound `CC[C@H](C)[C@@H]1NC(=O)[C@H](CCCCN)NC(=O)[C@@H](NC(=O)[C@H](CCCCN)NC(=O)[C@@H](NC(=O)[C@H](CCCNC(=N)N)NC(=O)[C@@H](NC(=O)[C@@H](NC(=O)[C@@H](NC(=O)CN)C(C)C)[C@@H](C)CC)[C@@H](C)CC)C(C)C)CSSC[C@@H]2NC(=O)[C@H](CCCCN)NC(=O)CNC(=O)[C@H](Cc3ccccc3)NC(=O)[C@H](CCCNC(=N)N)NC(=O)[C@H](CCSC)NC(=O)CNC(=O)[C@H](C)NC(=O)[C@H](CCCCN)NC(=O)[C@H](CCCCN)NC(=O)[C@@H]3CSSC[C@@H](C(=O)N[C@H](C(=O)N4CCC[C@H]4C(=O)N[C@@H](CCCCN)C(=O)O)[C@@H](C)O)NC(=O)[C@H](Cc4c[nH]cn4)NC(=O)[C@H](CSSC[C@H](NC(=O)[C@H](CCC(N)=O)NC(=O)[C@H](CCCNC(=N)N)NC(=O)[C@H](CO)NC1=O)C(=O)N[C@@H](CC(C)C)C(=O)N[C@@H](CCC(=O)O)C(=O)N1CCC[C@H]1C(=O)N3)NC(=O)[C@H](CCCCN)NC(=O)CNC(=O)[C@H](CC(N)=O)NC(=O)[C@H](CCSC)NC2=O` [N5R] (H-GVIIRVKCKISRQCLEPCKKAGMRFGKCMNGKCHCTPK-OH; disulfide 8-28, 14-33, 18-35), the results for the IC50 against human Kv1.3 (CHO) and on human Kv1.1 (HEK293) were 0.0136 nM and 0.00215 nM, respectively.
For `CC[C@H](C)[C@@H]1NC(=O)[C@H](CCCCN)NC(=O)[C@@H](NC(=O)[C@H](CCCCN)NC(=O)[C@@H](NC(=O)[C@H](CC(N)=O)NC(=O)[C@@H](NC(=O)[C@@H](NC(=O)[C@@H](NC(=O)CN)C(C)C)[C@@H](C)CC)[C@@H](C)CC)C(C)C)CSSC[C@@H]2NC(=O)[C@H](CCCCN)NC(=O)CNC(=O)[C@H](Cc3ccccc3)NC(=O)[C@H](CCCNC(=N)N)NC(=O)[C@H](CCSC)NC(=O)CNC(=O)[C@H](C)NC(=O)[C@H](CCCCN)NC(=O)[C@H](CCCCN)NC(=O)[C@@H]3CSSC[C@@H](C(=O)N[C@H](C(=O)N4CCC[C@H]4C(=O)N[C@@H](CCCCN)C(=O)O)[C@@H](C)O)NC(=O)[C@H](Cc4c[nH]cn4)NC(=O)[C@H](CSSC[C@H](NC(=O)[C@H](CCC(N)=O)NC(=O)[C@H](CCCNC(=N)N)NC(=O)[C@H](CO)NC1=O)C(=O)N[C@@H](CC(C)C)C(=O)N[C@@H](CCC(=O)O)C(=O)N1CCC[C@H]1C(=O)N3)NC(=O)[C@H](CCCCN)NC(=O)CNC(=O)[C@H](CCCNC(=N)N)NC(=O)[C@H](CCSC)NC2=O` [N30R] (H-GVIINVKCKISRQCLEPCKKAGMRFGKCMRGKCHCTPK-OH; disulfide 8-28, 14-33, 18-35), the IC50 against human Kv1.3 (CHO) came out at 0.0189 nM; on human Kv1.1 (HEK293), 0.0457 nM.
The like results for `CC[C@H](C)[C@@H]1NC(=O)[C@H](CCCCN)NC(=O)[C@@H](NC(=O)[C@H](CCCCN)NC(=O)[C@@H](NC(=O)[C@H](CC(N)=O)NC(=O)[C@@H](NC(=O)[C@@H](NC(=O)[C@@H](NC(=O)CN)C(C)C)[C@@H](C)CC)[C@@H](C)CC)C(C)C)CSSC[C@@H]2NC(=O)[C@H](CCCCN)NC(=O)CNC(=O)[C@H](Cc3ccccc3)NC(=O)[C@H](CCCNC(=N)N)NC(=O)[C@H](CCSC)NC(=O)CNC(=O)[C@H](C)NC(=O)[C@H](CCCCN)NC(=O)[C@H](CCCCN)NC(=O)[C@@H]3CSSC[C@@H](C(=O)N[C@H](C(=O)N4CCC[C@H]4C(=O)N[C@@H](CCCCN)C(=O)O)[C@@H](C)O)NC(=O)[C@H](Cc4c[nH]cn4)NC(=O)[C@H](CSSC[C@H](NC(=O)[C@H](CCC(N)=O)NC(=O)[C@H](CCCNC(=N)N)NC(=O)[C@H](CO)NC1=O)C(=O)N[C@@H](CC(C)C)C(=O)N[C@@H](CCC(=O)O)C(=O)N[C@@H](C)C(=O)N3)NC(=O)[C@H](CCCCN)NC(=O)CNC(=O)[C@H](CC(N)=O)NC(=O)[C@H](CCSC)NC2=O` [P17A] (H-GVIINVKCKISRQCLEACKKAGMRFGKCMNGKCHCTPK-OH; disulfide 8-28, 14-33, 18-35) were, in that order, 0.0339 nM and 0.00908 nM.
In the case of `CC[C@H](C)[C@@H]1NC(=O)[C@H](CCCCN)NC(=O)[C@@H](NC(=O)[C@H](CCCCN)NC(=O)[C@@H](NC(=O)[C@H](CC(N)=O)NC(=O)[C@@H](NC(=O)[C@@H](NC(=O)[C@@H](NC(=O)CN)C(C)C)[C@@H](C)CC)[C@@H](C)CC)C(C)C)CSSC[C@@H]2NC(=O)[C@H](CCCCN)NC(=O)CNC(=O)[C@H](Cc3ccccc3)NC(=O)[C@H](CCCNC(=N)N)NC(=O)[C@H](CCSC)NC(=O)CNC(=O)[C@H](C)NC(=O)[C@H](CCCCN)NC(=O)[C@H](CCCCN)NC(=O)[C@@H]3CSSC[C@@H](C(=O)N[C@H](C(=O)N4CCC[C@H]4C(=O)N[C@@H](CCCCN)C(=O)O)[C@@H](C)O)NC(=O)[C@H](Cc4c[nH]cn4)NC(=O)[C@H](CSSC[C@H](NC(=O)[C@H](CCC(N)=O)NC(=O)[C@H](CCCNC(=N)N)NC(=O)[C@H](CO)NC1=O)C(=O)N[C@@H](CC(C)C)C(=O)N[C@@H](CCC(=O)O)C(=O)N[C@@H](CCC(=O)O)C(=O)N3)NC(=O)[C@H](CCCCN)NC(=O)CNC(=O)[C@H](CC(N)=O)NC(=O)[C@H](CCSC)NC2=O` [P17E] (H-GVIINVKCKISRQCLEECKKAGMRFGKCMNGKCHCTPK-OH; disulfide 8-28, 14-33, 18-35), the IC50 against human Kv1.3 (CHO) came to 0.0145 nM; at human Kv1.1 (HEK293), 0.00181 nM.
As for `CC[C@H](C)[C@@H]1NC(=O)[C@H](CCCCN)NC(=O)[C@@H](NC(=O)[C@H](CCCCN)NC(=O)[C@@H](NC(=O)[C@H](CC(N)=O)NC(=O)[C@@H](NC(=O)[C@@H](NC(=O)[C@@H](NC(=O)CN)C(C)C)[C@@H](C)CC)[C@@H](C)CC)C(C)C)CSSC[C@@H]2NC(=O)[C@H](CCCCN)NC(=O)CNC(=O)[C@H](Cc3ccccc3)NC(=O)[C@H](CCCNC(=N)N)NC(=O)[C@H](CCSC)NC(=O)CNC(=O)[C@H](C)NC(=O)[C@H](CCCCN)NC(=O)[C@H](CCCCN)NC(=O)[C@@H]3CSSC[C@@H](C(=O)N[C@H](C(=O)N4CCC[C@H]4C(=O)N[C@@H](CCCCN)C(=O)O)[C@@H](C)O)NC(=O)[C@H](Cc4c[nH]cn4)NC(=O)[C@H](CSSC[C@H](NC(=O)[C@H](CCC(N)=O)NC(=O)[C@H](CCCNC(=N)N)NC(=O)[C@H](CO)NC1=O)C(=O)N[C@@H](CC(C)C)C(=O)N[C@@H](CCC(=O)O)C(=O)N[C@@H](Cc1cccc4ccccc14)C(=O)N3)NC(=O)[C@H](CCCCN)NC(=O)CNC(=O)[C@H](CC(N)=O)NC(=O)[C@H](CCSC)NC2=O` [P17Nal] (H-GVIINVKCKISRQCLE[1Nal]CKKAGMRFGKCMNGKCHCTPK-OH; disulfide 8-28, 14-33, 18-35), the concentration for half-maximal inhibition (IC50) is 0.0162 nM at human Kv1.3 (CHO) and under 0.00152 nM against human Kv1.1 (HEK293).
